Consider 1 compound from ChEMBL document CHEMBL4330132, “5-Keto-3-cyano-2,4-diaminothiophenes as selective maternal embryonic leucine zipper kinase inhibitors” (Bioorg Med Chem Lett, 2019).

Experiment [1] deals with Tyrosine-protein kinase ABL1 (Homo sapiens), P00519 [M351T]. The experiment in a line: Binding affinity to human phosphorylated ABL1 M351T mutant (S229 to K512 residues) expressed in mammalian expression system assessed as residual binding level at 1 uM by Kinomescan method relative to control.
For experiment [2], the target named is Serine/threonine-protein kinase BRSK2 (Homo sapiens) (UniProt Q8IWQ3). The experiment in a line: Binding affinity to wild-type human full length BRSK2 (M1 to L674 residues) expressed in bacterial expression system assessed as residual binding level at 1 uM by Kinomescan method relative to control.
Sequence of Serine/threonine-protein kinase BRSK2 (Homo sapiens) (Q8IWQ3 whole entry, the tested form may be a part): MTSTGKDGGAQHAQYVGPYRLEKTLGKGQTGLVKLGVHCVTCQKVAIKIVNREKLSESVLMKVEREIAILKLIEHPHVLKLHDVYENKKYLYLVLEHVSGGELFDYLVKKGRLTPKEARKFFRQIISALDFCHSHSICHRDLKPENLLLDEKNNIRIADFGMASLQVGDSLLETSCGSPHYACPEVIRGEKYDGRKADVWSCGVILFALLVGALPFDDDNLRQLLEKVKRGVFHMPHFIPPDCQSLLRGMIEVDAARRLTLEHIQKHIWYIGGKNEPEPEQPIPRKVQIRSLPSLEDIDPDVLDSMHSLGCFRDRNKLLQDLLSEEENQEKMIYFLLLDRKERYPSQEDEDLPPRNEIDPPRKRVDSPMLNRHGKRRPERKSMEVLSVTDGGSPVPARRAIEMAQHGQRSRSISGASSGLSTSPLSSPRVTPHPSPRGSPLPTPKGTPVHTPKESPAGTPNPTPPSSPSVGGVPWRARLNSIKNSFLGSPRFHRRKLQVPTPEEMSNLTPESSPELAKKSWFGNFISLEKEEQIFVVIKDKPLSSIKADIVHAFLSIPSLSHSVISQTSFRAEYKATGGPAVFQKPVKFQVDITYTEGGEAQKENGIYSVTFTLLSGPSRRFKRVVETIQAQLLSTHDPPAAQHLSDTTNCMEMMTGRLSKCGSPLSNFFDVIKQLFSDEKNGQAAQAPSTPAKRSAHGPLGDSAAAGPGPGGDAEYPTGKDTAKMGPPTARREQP
The target of experiment [3] is Calcium/calmodulin-dependent protein kinase type 1D (Homo sapiens) (UniProt Q8IU85). The experiment in a line: Binding affinity to wild-type human partial length CAMK1D (M1 to K299 residues) expressed in bacterial expression system assessed as residual binding level at 1 uM by Kinomescan method relative to control.
Sequence of Calcium/calmodulin-dependent protein kinase type 1D (Homo sapiens) (Q8IU85 whole entry, looked up, the tested form may be a part): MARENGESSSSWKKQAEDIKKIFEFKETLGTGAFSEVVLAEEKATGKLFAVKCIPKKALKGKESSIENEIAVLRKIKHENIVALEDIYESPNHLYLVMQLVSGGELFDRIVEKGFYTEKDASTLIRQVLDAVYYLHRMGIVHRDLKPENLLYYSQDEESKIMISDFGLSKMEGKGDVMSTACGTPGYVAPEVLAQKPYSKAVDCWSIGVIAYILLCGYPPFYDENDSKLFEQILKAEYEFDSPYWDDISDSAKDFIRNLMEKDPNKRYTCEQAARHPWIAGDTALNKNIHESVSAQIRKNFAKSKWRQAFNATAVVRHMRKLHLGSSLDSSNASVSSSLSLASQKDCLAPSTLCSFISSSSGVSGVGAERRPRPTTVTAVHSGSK
For experiment [4], the target named is Cyclin-dependent kinase 11B (Homo sapiens) (UniProt P21127). Put plainly: Binding affinity to wild-type human partial length CDC2L1 (P353 to G692 residues) expressed in bacterial expression system assessed as residual binding level at 1 uM by Kinomescan method relative to control.
Sequence of Cyclin-dependent kinase 11B (Homo sapiens) (P21127 whole entry, the tested form may be a part): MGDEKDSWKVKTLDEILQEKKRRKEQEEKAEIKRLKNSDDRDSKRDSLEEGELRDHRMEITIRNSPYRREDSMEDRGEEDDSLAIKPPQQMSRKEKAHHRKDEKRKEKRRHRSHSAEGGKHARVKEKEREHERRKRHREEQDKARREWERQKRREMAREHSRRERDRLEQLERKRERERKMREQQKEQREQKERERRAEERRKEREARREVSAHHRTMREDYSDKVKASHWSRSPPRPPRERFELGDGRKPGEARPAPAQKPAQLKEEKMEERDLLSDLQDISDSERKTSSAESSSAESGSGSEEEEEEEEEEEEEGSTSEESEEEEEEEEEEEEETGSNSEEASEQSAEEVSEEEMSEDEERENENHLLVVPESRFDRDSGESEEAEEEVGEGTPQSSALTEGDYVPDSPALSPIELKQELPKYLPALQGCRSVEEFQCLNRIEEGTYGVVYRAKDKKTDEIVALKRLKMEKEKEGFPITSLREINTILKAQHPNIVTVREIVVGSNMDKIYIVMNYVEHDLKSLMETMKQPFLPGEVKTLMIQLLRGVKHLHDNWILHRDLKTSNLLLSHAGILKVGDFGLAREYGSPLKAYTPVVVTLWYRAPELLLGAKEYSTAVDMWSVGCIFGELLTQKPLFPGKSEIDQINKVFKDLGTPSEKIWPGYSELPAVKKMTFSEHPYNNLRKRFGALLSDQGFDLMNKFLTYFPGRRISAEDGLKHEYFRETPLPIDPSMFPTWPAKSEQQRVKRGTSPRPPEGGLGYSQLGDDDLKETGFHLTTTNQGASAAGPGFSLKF
The target in experiment [5] is Cyclin-dependent kinase-like 2 (Homo sapiens) (UniProt Q92772). Put plainly: Binding affinity to wild-type human partial length CDKL2 (M1 to D327 residues) expressed in bacterial expression system assessed as residual binding level at 1 uM by Kinomescan method relative to control.
For experiment [6], the target named is Megakaryocyte-associated tyrosine-protein kinase (Homo sapiens) (UniProt P42679). The experiment in a line: Binding affinity to wild-type human full length CTK (M43 to P508 residues) expressed in mammalian expression system assessed as residual binding level at 1 uM by Kinomescan method relative to control.
Experiment [7] deals with Epidermal growth factor receptor (Homo sapiens), P00533 [UNDEFINED MUTATION]. The experiment in a line: Binding affinity to human partial length EGFR L747-E749del/A750P mutant expressed in bacterial expression system assessed as residual binding level at 1 uM by Kinomescan method relative to control.
The target in experiment [8] is Ephrin type-A receptor 5 (Homo sapiens) (UniProt P54756). Put plainly: Binding affinity to wild-type human partial length EPHA5 (T627 to V930 residues) expressed in bacterial expression system assessed as residual binding level at 1 uM by Kinomescan method relative to control.
Experiment [9] concerns the target Tyrosine-protein kinase HCK (Homo sapiens) (UniProt P08631). Put plainly: Binding affinity to wild-type human full length HCK (M22 to P526 residues) expressed in bacterial expression system assessed as residual binding level at 1 uM by Kinomescan method relative to control.
In experiment [10] the target is Homeodomain-interacting protein kinase 1 (Homo sapiens) (UniProt Q86Z02). The experiment in a line: Binding affinity to wild-type human partial length HIPK1 (M146 to I555 residues) expressed in mammalian expression system assessed as residual binding level at 1 uM by Kinomescan method relative to control.
Experiment [11] deals with Inhibitor of nuclear factor kappa-B kinase subunit epsilon (Homo sapiens) (UniProt Q14164). Put plainly: Binding affinity to wild-type human full length IKK-epsilon (M1 to V716 residues) expressed in mammalian expression system assessed as residual binding level at 1 uM by Kinomescan method relative to control.
For experiment [12], the target named is Mitogen-activated protein kinase 8 (Homo sapiens) (UniProt P45983). Put plainly: Binding affinity to wild-type human full length JNK1 (M1 to Q384 residues) expressed in mammalian expression system assessed as residual binding level at 1 uM by Kinomescan method relative to control.
Experiment [13] has as its target Serine/threonine-protein kinase MARK1 (Homo sapiens) (UniProt Q9P0L2). Put plainly: Binding affinity to wild-type human partial length MARK1 (Q30 to T341 residues) expressed in bacterial expression system assessed as residual binding level at 1 uM by Kinomescan method relative to control.
Experiment [14] concerns the target MAP/microtubule affinity-regulating kinase 3 (Homo sapiens) (UniProt P27448). Put plainly: Binding affinity to wild-type human full length MARK3 (M1 to L729 residues) expressed in bacterial expression system assessed as residual binding level at 1 uM by Kinomescan method relative to control.
For experiment [15], the target named is Dual specificity mitogen-activated protein kinase kinase 1 (Homo sapiens) (UniProt Q02750). Put plainly: Binding affinity to wild-type human full length MEK1 (M1 to V393 residues) expressed in mammalian expression system assessed as residual binding level at 1 uM by Kinomescan method relative to control.
The target in experiment [16] is Serine/threonine-protein kinase 38-like (Homo sapiens) (UniProt Q9Y2H1). The experiment in a line: Binding affinity to wild-type human partial length NDR2 (N34 to E447 residues) expressed in bacterial expression system assessed as residual binding level at 1 uM by Kinomescan method relative to control.
Experiment [17] deals with Phosphatidylinositol 4-phosphate 5-kinase type-1 gamma (Homo sapiens) (UniProt O60331). Put plainly: Binding affinity to wild-type human partial length PIP5K1C (M1 to T668 residues) expressed in mammalian expression system assessed as residual binding level at 1 uM by Kinomescan method relative to control.
Sequence of Phosphatidylinositol 4-phosphate 5-kinase type-1 gamma (Homo sapiens) (O60331 whole entry, the tested form may be a part): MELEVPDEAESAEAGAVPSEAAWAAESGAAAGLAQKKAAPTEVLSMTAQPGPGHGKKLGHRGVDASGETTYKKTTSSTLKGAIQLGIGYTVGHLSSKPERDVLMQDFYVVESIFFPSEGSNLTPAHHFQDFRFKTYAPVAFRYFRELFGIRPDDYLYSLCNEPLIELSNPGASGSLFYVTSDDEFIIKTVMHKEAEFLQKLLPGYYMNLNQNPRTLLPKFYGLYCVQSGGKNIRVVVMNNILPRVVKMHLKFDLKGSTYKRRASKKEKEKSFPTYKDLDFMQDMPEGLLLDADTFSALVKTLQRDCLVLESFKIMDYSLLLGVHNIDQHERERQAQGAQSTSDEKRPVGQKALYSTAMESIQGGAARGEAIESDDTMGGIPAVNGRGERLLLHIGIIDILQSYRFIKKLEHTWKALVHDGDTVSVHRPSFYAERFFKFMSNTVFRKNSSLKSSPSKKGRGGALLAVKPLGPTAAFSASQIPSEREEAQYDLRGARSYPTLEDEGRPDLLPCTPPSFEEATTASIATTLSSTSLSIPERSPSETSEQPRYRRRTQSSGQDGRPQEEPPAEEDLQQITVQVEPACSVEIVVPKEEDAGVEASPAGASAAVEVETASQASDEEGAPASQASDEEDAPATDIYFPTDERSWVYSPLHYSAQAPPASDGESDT
For experiment [18], the target named is Phosphatidylinositol 5-phosphate 4-kinase type-2 beta (Homo sapiens) (UniProt P78356). Put plainly: Binding affinity to wild-type human full length PIP5K2B (M1 to T416 residues) expressed in bacterial expression system assessed as residual binding level at 1 uM by Kinomescan method relative to control.
Sequence of Phosphatidylinositol 5-phosphate 4-kinase type-2 beta (Homo sapiens) (P78356 whole entry, the tested form may be a part): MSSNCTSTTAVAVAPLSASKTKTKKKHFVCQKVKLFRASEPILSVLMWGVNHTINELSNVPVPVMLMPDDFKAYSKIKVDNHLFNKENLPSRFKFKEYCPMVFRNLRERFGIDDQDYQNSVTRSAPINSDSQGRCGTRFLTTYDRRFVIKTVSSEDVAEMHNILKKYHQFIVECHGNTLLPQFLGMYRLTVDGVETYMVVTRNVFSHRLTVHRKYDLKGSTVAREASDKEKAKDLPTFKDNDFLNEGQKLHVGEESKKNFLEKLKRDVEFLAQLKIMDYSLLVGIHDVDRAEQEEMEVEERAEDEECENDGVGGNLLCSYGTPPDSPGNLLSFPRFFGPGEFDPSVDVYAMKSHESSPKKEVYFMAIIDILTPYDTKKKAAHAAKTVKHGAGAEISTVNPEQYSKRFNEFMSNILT
Experiment [19] has as its target Protein kinase C delta type (Homo sapiens) (UniProt Q05655). Put plainly: Binding affinity to wild-type human partial length PRKCD (Q328 to D676 residues) expressed in bacterial expression system assessed as residual binding level at 1 uM by Kinomescan method relative to control.
Experiment [20] concerns the target Protein kinase C epsilon type (Homo sapiens) (UniProt Q02156). Put plainly: Binding affinity to wild-type human partial length PRKCE (A378 to P737 residues) expressed in mammalian expression system assessed as residual binding level at 1 uM by Kinomescan method relative to control.
The target in experiment [21] is Protein kinase C eta type (Homo sapiens) (UniProt P24723). The experiment in a line: Binding affinity to wild-type human partial length PRKCH (S324 to P683 residues) expressed in bacterial expression system assessed as residual binding level at 1 uM by Kinomescan method relative to control.
Experiment [22] concerns the target Protein kinase C iota type (Homo sapiens) (UniProt P41743). Put plainly: Binding affinity to wild-type human partial length PRKCI (H215 to V587 residues) expressed in mammalian expression system assessed as residual binding level at 1 uM by Kinomescan method relative to control.
Experiment [23] concerns the target cAMP-dependent protein kinase catalytic subunit PRKX (Homo sapiens) (UniProt P51817). Put plainly: Binding affinity to wild-type human partial length PRKX (M1 to F358 residues) expressed in bacterial expression system assessed as residual binding level at 1 uM by Kinomescan method relative to control.
Experiment [24] has as its target Activated CDC42 kinase 1 (Homo sapiens) (UniProt Q07912). Put plainly: Binding affinity to wild-type human partial length TNK2 (S159 to D474 residues) expressed in bacterial expression system assessed as residual binding level at 1 uM by Kinomescan method relative to control.

Sequence of Protein kinase C epsilon type (Homo sapiens) (Q02156 whole entry, the tested form may be a part): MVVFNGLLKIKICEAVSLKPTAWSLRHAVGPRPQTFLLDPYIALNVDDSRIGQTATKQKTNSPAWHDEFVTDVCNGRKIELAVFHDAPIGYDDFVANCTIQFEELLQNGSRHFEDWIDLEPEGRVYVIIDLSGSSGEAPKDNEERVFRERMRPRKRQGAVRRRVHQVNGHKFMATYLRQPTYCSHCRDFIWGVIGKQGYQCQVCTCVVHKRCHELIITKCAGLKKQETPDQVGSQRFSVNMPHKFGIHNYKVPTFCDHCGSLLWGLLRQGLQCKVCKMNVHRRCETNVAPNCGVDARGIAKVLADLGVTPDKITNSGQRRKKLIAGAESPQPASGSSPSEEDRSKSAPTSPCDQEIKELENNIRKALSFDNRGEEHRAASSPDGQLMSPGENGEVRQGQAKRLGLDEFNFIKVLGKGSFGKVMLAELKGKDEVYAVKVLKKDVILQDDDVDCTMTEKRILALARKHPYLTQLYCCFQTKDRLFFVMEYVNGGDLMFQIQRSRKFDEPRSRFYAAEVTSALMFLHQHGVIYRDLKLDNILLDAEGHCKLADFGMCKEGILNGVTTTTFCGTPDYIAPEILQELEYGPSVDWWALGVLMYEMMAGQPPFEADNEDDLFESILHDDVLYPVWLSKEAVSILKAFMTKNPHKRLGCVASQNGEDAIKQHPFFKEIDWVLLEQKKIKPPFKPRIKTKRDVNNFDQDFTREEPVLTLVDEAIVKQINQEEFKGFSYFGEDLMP
Sequence of Activated CDC42 kinase 1 (Homo sapiens) (Q07912 whole entry, looked up, the tested form may be a part): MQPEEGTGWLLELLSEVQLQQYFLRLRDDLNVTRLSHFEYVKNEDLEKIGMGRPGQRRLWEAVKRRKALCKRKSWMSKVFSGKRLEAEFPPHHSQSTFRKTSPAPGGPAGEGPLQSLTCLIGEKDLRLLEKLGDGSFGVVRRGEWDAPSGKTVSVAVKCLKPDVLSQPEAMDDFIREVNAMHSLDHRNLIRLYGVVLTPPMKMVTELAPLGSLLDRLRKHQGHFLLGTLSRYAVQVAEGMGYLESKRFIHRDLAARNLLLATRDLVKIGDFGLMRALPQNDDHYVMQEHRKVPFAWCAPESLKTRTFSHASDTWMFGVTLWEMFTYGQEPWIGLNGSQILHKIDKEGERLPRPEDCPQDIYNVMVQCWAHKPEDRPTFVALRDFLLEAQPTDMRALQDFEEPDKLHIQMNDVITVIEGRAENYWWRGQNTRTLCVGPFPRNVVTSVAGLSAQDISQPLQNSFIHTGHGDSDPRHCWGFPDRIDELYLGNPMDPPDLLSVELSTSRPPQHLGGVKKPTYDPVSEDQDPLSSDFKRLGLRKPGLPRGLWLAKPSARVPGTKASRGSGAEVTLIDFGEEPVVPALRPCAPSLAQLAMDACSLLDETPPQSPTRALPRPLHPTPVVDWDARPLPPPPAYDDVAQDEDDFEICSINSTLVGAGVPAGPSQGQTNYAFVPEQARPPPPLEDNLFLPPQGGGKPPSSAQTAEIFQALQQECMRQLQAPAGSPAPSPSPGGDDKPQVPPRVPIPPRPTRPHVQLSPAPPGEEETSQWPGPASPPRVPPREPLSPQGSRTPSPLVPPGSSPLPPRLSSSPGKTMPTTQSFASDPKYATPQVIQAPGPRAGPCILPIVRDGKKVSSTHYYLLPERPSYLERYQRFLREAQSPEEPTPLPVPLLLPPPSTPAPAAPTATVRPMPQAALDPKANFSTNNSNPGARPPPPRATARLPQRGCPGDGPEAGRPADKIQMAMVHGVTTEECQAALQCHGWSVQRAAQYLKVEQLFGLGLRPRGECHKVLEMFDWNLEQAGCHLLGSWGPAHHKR

As to `CC(C)Nc1sc(C(=O)c2ccc(Cl)s2)c(N)c1C#N`, the Activity in [1] stood at 100%; in [2], 58%; in experiment [3], 94%; in [4] it was 100%; in experiment [5], 80%; in [6] it was 100%. For the same compound, the Activity amounted to 80% in [7]; 100% in [8]; 90% in experiment [9]; 100% in [10]; 100% in experiment [11]; 100% in experiment [12]. The Activity in experiment [13] was determined as 67%; in experiment [14], 78%; in experiment [15], 96%; in [16] it was 89%; in experiment [17], 86%; in experiment [18], 100%. The Activity in experiment [19] stood at 72%; in experiment [20], 85%; in experiment [21], 84%; in [22] it was 100%; in experiment [23], 79%; in [24], 60%.
